Patent US6051605A, “Method of treating psychosis and schizophrenia” (priority 1999, dated 2000)
Structures can show the parent of a compound that is named as a salt.

target: T1, human recombinant dopamine D4.2 receptor (Homo sapiens, UniProt P21917, DEL265-296); test: Receptor binding assay, D4.2 dopamine receptor ([3H]spiperone competition)
T1 construct: expressed in transfected cells; membranes
T1 sequence (P21917 with tags, fused parts or gaps DEL265-296): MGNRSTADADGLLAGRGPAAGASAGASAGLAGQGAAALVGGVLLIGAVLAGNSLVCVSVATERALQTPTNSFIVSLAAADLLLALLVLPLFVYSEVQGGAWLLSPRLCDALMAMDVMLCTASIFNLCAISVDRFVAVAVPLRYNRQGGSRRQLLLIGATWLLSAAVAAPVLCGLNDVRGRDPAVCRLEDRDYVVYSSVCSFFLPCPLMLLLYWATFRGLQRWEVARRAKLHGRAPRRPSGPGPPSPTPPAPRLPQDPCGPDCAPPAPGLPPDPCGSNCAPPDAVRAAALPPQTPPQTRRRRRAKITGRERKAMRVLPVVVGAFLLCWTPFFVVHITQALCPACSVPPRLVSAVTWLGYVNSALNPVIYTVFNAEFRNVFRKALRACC

SMILES	Ki [nM]
COc1ccc(OCCCNCCCOc2ccc(OC)cc2)cc1 [Example 1q, Bis[3-(4-methoxy-phenoxy)-propyl]-amine hydrochloride]	1330
Cc1ccc(OCCNCCCOc2ccccc2)cc1 [Example 2, (3-Phenoxy-propyl)-(2-p-tolyloxy-ethyl)-amine hydrochloride]	0.2
O=[N+]([O-])c1ccc(OCCNCCCOc2ccccc2)cc1 [Example 2a, [2-(4-Nitro-phenoxy)-ethyl]-(3-phenoxy-propyl)-amine hydrochloride]	4.4
CC(C)(C)c1ccc(OCCNCCCOc2ccccc2)cc1 [Example 2b, [2-(4-tert-Butyl-phenoxy)-ethyl]-(3-phenoxy-propyl)-amine hydrochloride]	20.9
CCOc1ccc(OCCNCCCOc2ccccc2)cc1 [Example 2c, [2-(4-Ethoxy-phenoxy)-ethyl]-(3-phenoxy-propyl)-amine hydrochloride]	11.9
c1ccc(OCCCNCCOc2ccc(-c3ccccc3)cc2)cc1 [Example 2e, [2-(Biphenyl-4-yloxy)-ethyl]-(3-phenoxy-propyl)-amine hydrochloride]	383
Cc1ccc(OCCCNCCOc2ccc(C)cc2)cc1 [Example 3, (2-p-Tolyloxy-ethyl)-(3-p-tolyloxy-propyl)-amine hydrochloride]	11.4
Cc1ccc(OCCNCCCOc2ccc(Br)cc2)cc1 [Example 3b, [3-(4-Bromo-phenoxy)-propyl]-(2-p-tolyloxy-ethyl)-amine hydrochloride]	26.9
Cc1ccc(OCCCNCCOc2ccc(Cl)cc2)cc1 [Example 3e, [2-(4-Chloro-phenoxy)-ethyl]-(3-p-tolyloxy-propyl)-amine hydrochloride]	5.6
Cc1ccc(OCCCNCCOc2ccccc2)cc1 [Example 3f, (2-Phenoxy-ethyl)-(3-p-tolyloxy-propyl)-amine hydrochloride]	2.7
Clc1ccc(OCCNCCCOc2ccc(Br)cc2)cc1 [Example 3g, [3-(4-Bromo-phenoxy)-propyl]-[2-(4-chloro-phenoxy)-ethyl]-amine hydrochloride]	37.8
Fc1ccc(OCCCNCCOc2ccccc2)cc1 [Example 4, [3-(4-Fluoro-phenoxy)-propyl]-(2-phenoxy-ethyl)-amine hydrochloride]	1.2
Brc1ccc(OCCCNCCCOc2ccc(Br)cc2)cc1 [Example 4a, Bis-[3-(4-bromo-phenoxy)-propyl]-amine hydrochloride]	45.8
Cc1ccc(OCCCNCCCOc2ccc(C)cc2)cc1 [Example 4b, Bis(3-p-tolyloxy-propyl)-amine hydrochloride]	136
Cc1ccc(OCCNCCCOc2ccc(F)cc2)cc1 [Example 4c, [3-(4-Fluoro-phenoxy)-propyl]-(2-p-tolyloxy-ethyl)-amine hydrochloride]	0.96
Cc1ccc(SCCNCCCOc2ccccc2)cc1 [Example 4d, (3-Phenoxy-propyl)-(2-p-tolylsulfanyl-ethyl)-amine hydrochloride]	30

SMILES	Ki [nM]
Clc1ccc(SCCNCCCOc2ccccc2)cc1 [Example 4e, [2-(4-Chloro-phenylsulfanyl)-ethyl]-(3-phenoxy-propyl)-amine hydrochloride]	33.1
Clc1ccc(OCCNCCCSc2ccccc2)cc1 [Example 4f, [2-(4-Chloro-phenoxy)-ethyl]-(3-phenylsulfanyl-propyl)-amine hydrochloride]	1.7
Cc1ccc(OCCNCCCSc2ccccc2)cc1 [Example 4g, (3-Phenylsulfanyl-propyl)-(2-p-tolyloxy-ethyl)-amine hydrochloride]	1.2
Fc1ccc(OCCCNCCOc2ccc(Cl)cc2)cc1 [Example 4h, [2-(4-Chloro-phenoxy)-ethyl]-[3-(4-fluoro-phenoxy)-propyl]-amine hydrochloride]	0.84
Cc1ccc(CCCNCCCOc2ccccc2)cc1 [Example 5, (3-Phenoxy-propyl)-(3-p-tolyl-propyl)-amine hydrochloride]	4.7
COC(=O)c1ccc(OCCNCCCOc2ccccc2)cc1 [Example 6a, 4-[2-(3-Phenoxy-propylamino)-ethoxy]-benzoic acid methyl ester]	10.9
N#Cc1ccc(OCCNCCCOc2ccccc2)cc1 [Example 6b, 4-[2-(3-Phenoxy-propylamino)-ethoxy]-benzonitrile]	10.7
Cc1ccc(OCCNCCOc2ccccc2)cc1 [Example 6d, (2-Phenoxy-ethyl)-(2-p-tolyloxy-ethyl)-amine hydrochloride]	103
Cc1ccc(OCCNCCOc2ccc(C)cc2)cc1 [Example 6e, Bis-(2-p-tolyloxy-ethyl)-amine hydrochloride]	74.9
COc1ccc(OCCNCCCOc2ccccc2)cc1 [Example 9d, [2-(4-Methoxy-phenoxy)-ethyl]-(3-phenoxy-propyl)-amine hydrochloride]	5.4
Oc1ccc(OCCNCCCOc2ccccc2)cc1 [Example 11, 4-[2-(3-Phenoxy-propylamino)-ethoxy]-phenol hydrobromide]	3.1
O=C(O)c1ccc(OCCNCCCOc2ccccc2)cc1 [Example 15, 4-[2-(3-Phenoxy-propylamino)-ethoxy]-benzoic acid hydrochloride]	> 1000
Cc1ccc(OCCNCC(O)COc2ccccc2)cc1 (stereo not shown) [Example 16g, 1-Phenoxy-3-(2-p-tolyloxy-ethylamino)-propan-2-ol]	1.3
OC(CNCCOc1ccc(Cl)cc1)COc1ccccc1 (stereo not shown) [Example 16h, 1-[2-(4-Chloro-phenoxy)-ethylamino]-3-phenoxy-propan-2-ol]	2.1
Brc1ccc(OCCCNCCOc2ccccc2)cc1 [Example 16i, [3-(4-Bromo-phenoxy)-propyl]-(2-phenoxy-ethyl)-amine hydrochloride]	6.1
